Reference: ChEMBL document CHEMBL2380251, “Antiproliferative activity of 2,3-disubstituted indoles toward apoptosis-resistant cancers cells” (2013)
Active and inactive are the calls of the source. The calls are words filed in the database; no cut-off is given here.

Experiments:
B16-F10 = experiment: Growth inhibition of apoptosis-resistance mouse B16F10 cells after 72 hrs by MTT assay; assay type: functional; conditions: B16-F10, 72 h
A549 [1] = experiment: Growth inhibition of apoptosis-resistance human A549 cells after 72 hrs by MTT assay; assay type: functional; conditions: A549, 72 h
Hs 683 = experiment: Growth inhibition of apoptosis-sensitive human Hs 683 cells after 72 hrs by MTT assay; assay type: functional; conditions: Hs 683, 72 h
[2] = Growth inhibition of apoptosis-resistance human U373 cells after 72 hrs by MTT assay; assay type: functional, U-373MG ATCC; conditions: U373 MG
SK-MEL-28 [3] = experiment: Growth inhibition of apoptosis-resistance human SK-MEL-28 cells after 72 hrs by MTT assay; assay type: functional; conditions: SK-MEL-28, 72 h
SK-MEL-28 [4] = experiment: Induction of membrane permeabilization in apoptosis-resistance human SK-MEL-28 cells at GI50 after 72 hrs by propidium iodide staining-based flow cytometric analysis; assay type: functional, cell-based
SK-MEL-28 [5] = experiment: Cytostatic activity against apoptosis-resistance human SK-MEL-28 cells assessed as cell growth at GI50 after 72 hrs by phase contrast microscopic analysis relative to control; assay type: functional
A549 [6] = experiment: Cytostatic activity against apoptosis-resistance human A549 cells assessed as cell growth at GI50 after 72 hrs by phase contrast microscopic analysis relative to control; assay type: functional
A549 [7] = experiment: Induction of membrane permeabilization in apoptosis-resistance human A549 cells at GI50 after 72 hrs by propidium iodide staining-based flow cytometric analysis; assay type: functional, cell-based
SK-MEL-28 [8] = experiment: Induction of apoptosis in apoptosis-resistance human SK-MEL-28 cells at GI50 after 72 hrs by phase contrast microscopic analysis; assay type: functional, cell-based
A549 [9] = experiment: Induction of apoptosis in apoptosis-resistance human A549 cells at GI50 after 72 hrs by phase contrast microscopic analysis; assay type: functional, cell-based

GI50 (B16-F10) [µM] | GI50 (A549 [1]) [µM] | GI50 (SK-MEL-28 [3]) [µM] | Compound | GI50 (Hs 683) [µM] | GI50 [2] [µM] | Activity (SK-MEL-28 [4]) | Activity (SK-MEL-28 [5]) [%] | Activity (A549 [6]) [%] | Activity (A549 [7]) | Activity (SK-MEL-28 [8]) | Activity (A549 [9])
29 | 30 | 28 | Clc1ccc(Oc2c(-c3ccc(Cl)cc3)[nH]c3ccc(Br)cc23)cc1 | 26 | 35 | – | – | – | – | – | –
14 | 22 | 24 | Fc1ccc2[nH]c(-c3ccc(Cl)cc3)c(Oc3ccc(Cl)cc3)c2c1 | 22 | 20 | – | – | – | – | – | –
40 | 26 | 33 | Cc1ccc2[nH]c(-c3ccccc3)c(-n3nc(C)cc3C)c2c1 | 29 | 10 | – | – | – | – | – | –
10 | 10 | 19 | Clc1ccc(Oc2c(-c3ccc(Cl)cc3)[nH]c3ccc(Cl)cc23)cc1 | 13 | 13 | – | – | – | – | – | –
35 | 26 | 26 | Clc1ccc(Sc2c(-c3ccc(Br)cc3)[nH]c3ccccc23)cc1 | 25 | 24 | – | – | – | – | – | –
73 | 38 | 80 | Cc1cc(C)n(-c2c(-c3cccs3)[nH]c3ccccc23)n1 | 58 | 90 | – | – | – | – | – | –
> 100 | 61 | 84 | Cc1cc(C)n(-c2c(-c3ccccc3)[nH]c3ccccc23)n1 | 67 | 84 | – | – | – | – | – | –
29 | 25 | 28 | Clc1ccc(Oc2c(-c3ccc(Cl)cc3)[nH]c3ccccc23)cc1 | 28 | 25 | – | – | – | – | – | –
28 | 27 | 34 | Clc1ccc(Sc2c(-c3ccc(Cl)cc3)[nH]c3ccccc23)cc1 | 31 | 28 | inactive | 10 | 30 | inactive | inactive | inactive
65 | 42 | 46 | Cc1ccc2[nH]c(-c3ccc(Cl)cc3)c(-n3nc(C)cc3C)c2c1 | 50 | 43 | – | – | – | – | – | –
33 | 26 | 33 | Clc1ccc(/N=N/c2c(-c3ccc(Br)cc3)[nH]c3ccccc23)cc1 | 31 | 33 | – | – | – | – | – | –
31 | 59 | 57 | COc1ccc2[nH]c(-c3ccc(Cl)cc3)c(Oc3ccc(Cl)cc3)c2c1 | 54 | 50 | – | – | – | – | – | –
20 | 28 | 28 | CCOC(=O)c1ccc2[nH]c(-c3ccc(Cl)cc3)c(Oc3ccc(Cl)cc3)c2c1 | 24 | 35 | – | – | – | – | – | –
39 | 29 | 31 | Cc1cc(C)n(-c2c(-c3ccccc3)[nH]c3ccc(F)cc23)n1 | 32 | 47 | – | – | – | – | – | –
36 | 40 | 35 | Cc1cc(C)n(-c2c(-c3cccs3)[nH]c3ccc(Cl)cc23)n1 | 32 | 32 | – | – | – | – | – | –
8 | 7 | 8 | Fc1cccc2c(Oc3ccc(Cl)cc3)c(-c3ccc(Cl)cc3)[nH]c12 | 7 | 8 | – | – | – | – | – | –
28 | 27 | 34 | Clc1ccc(Sc2c(-c3ccc(Cl)cc3)[nH]c3ccc(Cl)cc23)cc1 | 31 | 28 | – | – | – | – | – | –

Continued, compound first:

Compound | GI50 (B16-F10) [µM] | GI50 (A549 [1]) [µM] | GI50 (SK-MEL-28 [3]) [µM] | GI50 (Hs 683) [µM] | GI50 [2] [µM] | Activity (SK-MEL-28 [4]) | Activity (SK-MEL-28 [5]) [%] | Activity (A549 [6]) [%] | Activity (A549 [7]) | Activity (SK-MEL-28 [8]) | Activity (A549 [9])
O=C(Nc1c(-c2ccccc2)[nH]c2ccccc12)C12CC3CC(CC(C3)C1)C2 | 44 | 38 | 67 | 69 | 38 | – | – | – | – | – | –
CCOC(=O)C1CCN(C(=S)Sc2c(-c3ccc(Br)cc3)[nH]c3ccc(C)cc23)CC1 | 37 | 37 | 52 | 34 | 68 | – | – | – | – | – | –
S=C(Sc1c(-c2ccc(Br)cc2)[nH]c2ccccc12)N1CCOCC1 | 20 | 31 | 35 | 32 | 43 | – | – | – | – | – | –
CCOC(=O)C1CCN(C(=S)Sc2c(-c3ccc(Br)cc3)[nH]c3ccc(Cl)cc23)CC1 | 21 | 34 | 39 | 36 | 33 | – | – | – | – | – | –
OC1CCCN(C(=S)Sc2c(-c3ccc(Br)cc3)[nH]c3ccccc23)C1 (stereo unspecified) | 29 | 24 | 28 | 24 | 32 | – | – | – | – | – | –
Cc1onc(-c2c(F)cccc2Cl)c1C(=O)Nc1c(-c2ccccc2)[nH]c2ccccc12 | 22 | 9 | 13 | 15 | 24 | – | – | – | – | – | –
Brc1ccc(/N=N/c2c(-c3ccc(Br)cc3)[nH]c3ccccc23)cc1 | 26 | 23 | 31 | 24 | 30 | – | – | – | – | – | –
O=C(CSCc1ccccc1)Nc1c(-c2ccccc2)[nH]c2ccccc12 | 35 | 30 | 30 | 33 | 47 | – | – | – | – | – | –
O=C(Nc1c(-c2ccccc2)[nH]c2ccc(Cl)cc12)c1cc2ccccc2oc1=O | 27 | 37 | 55 | 45 | 66 | – | – | – | – | – | –
CCOC(=O)C1CCN(C(=S)Sc2c(-c3ccc(Br)cc3)[nH]c3ccccc23)CC1 | 27 | 34 | 36 | 36 | 35 | – | – | – | – | – | –
CCOC(=O)C1CCN(C(=S)Sc2c(-c3ccc(Br)cc3)n(C)c3ccccc23)CC1 | 50 | 72 | 78 | 85 | > 100 | – | – | – | – | – | –
CCN(CC)C(=S)Sc1c(-c2ccc(Br)cc2)[nH]c2ccc(Br)cc12 | 33 | 22 | 29 | 22 | 9 | – | – | – | – | – | –
O=C(COc1ccc(Cl)cc1)Nc1c(-c2ccccc2)[nH]c2ccccc12 | 32 | 37 | 48 | 38 | 66 | – | – | – | – | – | –
OC1CCCN(C(=S)Sc2c(-c3ccc(Br)cc3)[nH]c3ccc(Cl)cc23)C1 (stereo unspecified) | 37 | 29 | 34 | 31 | 39 | – | – | – | – | – | –
CCN(CC)C(=S)Sc1c(-c2ccccc2)[nH]c2ccc(Br)cc12 | 40 | 31 | 28 | 26 | 36 | – | – | – | – | – | –
